Measurements taken from patent US20250099475A1, “METHODS OF TREATING HYPERTENSION BY PERIODIC SUPPRESSION OF ALDOSTERONE SYNTHASE” (Mineralys Therapeutics, Inc., priority 2022, published 2025).

Tested on: cardiovascular system
Test: Cardiovascular system in telemetered monkeys
Type: in vivo, cynomolgus monkey
Settings: single oral doses up to 100-mg/kg as free base
Protocol: Effects of Compound A on the cardiovascular system were evaluated with conscious telemetered cynomolgus monkeys. Single doses of 0, 10, 30, or 100 mg/kg of Compound A as free base were orally administered to four male monkeys in a Latin-square design with a 7-day interval between dosing. Blood pressure, heart rate, and electrocardiogram parameters (PR interval, QRS duration, QT interval, and QTcB) were evaluated up to 24 hours after each dosing.

With `CC(=O)N[C@H]1CC[C@H](NC(=O)CN2CCN(c3nncc(-c4ccc(C)cc4)n3)CC2)CC1` [Compound A] the “effects on cardiovascular parameters (blood pressure, heart rate, electrocardiogram)” value was “no effects”.
